According to patent publication US20130260436A1, “Methods of Identifying and Characterizing Natural Product Gene Clusters” (Victoria LInk Limited, priority 2010, published 2013):
pIC50, pKi: −log10 of the molar value.

Legend:
PcpS [1] = biological target: PcpS (Pseudomonas aeruginosa, UniProt Q9I4H2); test: BpsA coupled PPTase inhibition assay, PcpS; format: biochemical; conditions: for pIC50: 95% CI in parentheses; for pKi: Cheng-Prusoff, competitive inhibition
Sfp = Sfp (Bacillus spizizenii, UniProt G4NQW2); test: BpsA coupled PPTase inhibition assay, Sfp; format: biochemical, B. subtilis subsp. spizizenii ATCC6633; conditions: for pIC50: IC50, Sfp, 95% CI in parentheses; for pKi: Ki, Sfp, Cheng-Prusoff, competitive inhibition
PP1183 = PP1183 (Pseudomonas putida, UniProt Q88NM4); test: BpsA coupled PPTase inhibition assay, PP1183; format: biochemical, P. putida KT2440; conditions: for pIC50: IC50, PP1183, 95% CI in parentheses; for pKi: Ki, PP1183, Cheng-Prusoff, competitive inhibition
holo-BpsA = biological target: T1, holo-BpsA (Streptomyces lavendulae, UniProt Q1MWN4); test: Inhibition of indigoidine synthesis by pre-activated holo-BpsA (counter-screen); format: biochemical, S. lavendulae ATCC 11924; conditions: pre-activated holo-BpsA in isolation
T1 construct: 6His; made in house; host or cells: E. coli
T1 sequence (Q1MWN4 1-1282): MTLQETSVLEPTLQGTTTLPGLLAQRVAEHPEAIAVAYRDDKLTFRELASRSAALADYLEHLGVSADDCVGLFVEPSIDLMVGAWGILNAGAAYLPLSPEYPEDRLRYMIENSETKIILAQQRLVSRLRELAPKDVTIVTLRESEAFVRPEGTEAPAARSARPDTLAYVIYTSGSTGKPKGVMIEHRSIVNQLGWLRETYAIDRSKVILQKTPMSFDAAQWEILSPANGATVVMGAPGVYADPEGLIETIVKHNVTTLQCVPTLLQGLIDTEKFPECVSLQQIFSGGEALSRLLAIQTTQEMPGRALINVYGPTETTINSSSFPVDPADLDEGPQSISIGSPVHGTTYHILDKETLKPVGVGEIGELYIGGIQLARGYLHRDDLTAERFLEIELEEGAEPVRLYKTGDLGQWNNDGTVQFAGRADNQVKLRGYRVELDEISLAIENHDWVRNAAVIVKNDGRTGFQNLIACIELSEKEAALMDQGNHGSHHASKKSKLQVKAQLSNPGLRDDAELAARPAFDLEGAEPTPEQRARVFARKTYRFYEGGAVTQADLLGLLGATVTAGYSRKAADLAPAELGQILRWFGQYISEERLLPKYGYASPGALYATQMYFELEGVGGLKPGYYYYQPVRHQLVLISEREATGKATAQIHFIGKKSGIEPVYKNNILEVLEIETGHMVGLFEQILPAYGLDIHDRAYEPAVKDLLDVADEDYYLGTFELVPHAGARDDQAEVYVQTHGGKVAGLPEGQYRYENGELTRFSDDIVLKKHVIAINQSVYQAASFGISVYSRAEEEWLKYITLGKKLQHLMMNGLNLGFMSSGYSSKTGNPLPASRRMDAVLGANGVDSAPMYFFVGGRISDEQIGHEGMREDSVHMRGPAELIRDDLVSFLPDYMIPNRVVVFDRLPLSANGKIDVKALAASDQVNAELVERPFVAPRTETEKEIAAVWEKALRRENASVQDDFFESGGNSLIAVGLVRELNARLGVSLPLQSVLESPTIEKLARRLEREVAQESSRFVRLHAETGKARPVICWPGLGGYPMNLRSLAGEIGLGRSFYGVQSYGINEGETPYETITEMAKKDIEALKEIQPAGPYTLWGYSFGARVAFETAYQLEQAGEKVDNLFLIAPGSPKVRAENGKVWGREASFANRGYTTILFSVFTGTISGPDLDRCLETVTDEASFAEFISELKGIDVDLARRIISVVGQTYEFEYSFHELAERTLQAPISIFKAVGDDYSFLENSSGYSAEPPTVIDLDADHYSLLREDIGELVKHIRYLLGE

PcpS [2] = test: Screening of the LOPAC1280 library for PcpS inhibitors with the BpsA coupled assay; format: biochemical, P. aeruginosa; conditions: compound approximately 18 μM; 0.18 μM PcpS
Procedure: 1.8 μL of each compound from a Lopac^1280 library plate was added to 30 μL of 10% DMSO in MQ using a CyBio CyBi-well, giving a final compound concentration of approximately 18 μM. Next 50 μl, of a master mix containing 5 μM Co-enzyme A, 1.66 μM BpsA, 20 mM MgCl2, 5 mM ATP, 8 mM L-Gln, 100 mM Tris-HCl pH 7.8 and MQ was added. To initiate the reaction 20 μL of PcpS at a final reaction concentration of 0.18 μM and MQ was added rapidly, using an automatic dispensing Pipette. The plate was then shaken for 10 seconds at 1000 rpm to mix the compounds. The plate was then read 25 times to measure the Absorbance at 590 nm (with 20 second intervals between each read) in an EnSpire plate reader at 25° C. […] Negative and positive controls were established in wells in these columns, and used to monitor the reaction. […] Both control reactions were run in triplicate.
1.8 μL of each compound from a Lopac^1280 library plate was added to 304 of 10% DMSO in MQ using a CyBio CyBi-well, giving a final compound concentration of approximately 18 μM. Next 50 μL of a master mix containing 5 μM Co-enzyme A, 1.66 μM BpsA, 20 mM MgCl2, 5 mM ATP, 8 mM L-Gln, 100 mM Tris-HCl pH 7.8 and MQ was added. […] The plate was then read 25 times to measure the Absorbance at 590 nm (with 20 second intervals between each read) in an EnSpire plate reader at 25° C. […]

all three PPTases = test: BpsA coupled PPTase inhibition assay, summary over all three PPTases
Procedure: Each of the three PPTases was evaluated for inhibition across a two-fold serial dilution series of 6-NOBP (250-0.12 μM) with CoA concentration fixed at either 10 or 2.5 μM. […] Derived Ki values were most consistent between CoA concentrations when the Cheng-Prusoff equation for competitive inhibition was employed.
Triplicate two fold serial dilution series (250-0.12 μM) of the previously identified PPTase inhibitor 6-NOBP were established in a final volume of 50 ml 10% DMSO in a 96 wp. 100 μL of reaction mix (20 or 5 μM CoA, 5 mM ATP, 20 mM MgCl2, 8 mM L-Gln and 100 mM Tris-CL, 1.66 μM apo-BpsA, pH 7.8) was then added to each well. Reactions were then initiated by addition of 50 μL 0.32-1.0 μM PPTase in water to each well followed by mixing at 1000 rpm for 10 s. A590 values were then recorded and PPTase velocities determined as previously described.

PcpS [3] = test: Qualitative assessment of PcpS inhibition relative to 6-NOBP; format: biochemical, P. aeruginosa; conditions: each inhibitor 20 μM; 0.18 μM PcpS
Procedure: Duplicate wells with different inhibitors added. The No PcpS wells have ddH2O added instead of PcpS. The BpsA only wells have DMSO added instead of an inhibitor. The 6-NOBP wells have had 6-NOBP added at a final concentration of 20 μM. The Bay 11-7085 wells have had Bay 11-7085 added to a final concentration of 20 μM.
Bay 11-7085 was then serially diluted from 20 μM to 0.625 μM across the wells. The reaction was initiated by the addition of PcpS to a final concentration of 0.18 μM and indigoidine production was then monitored at 590 nm. Each concentration was tested in triplicate and the average of the three wells was taken to calculate the maximum velocity. The maximum velocity in each well was expressed as a percentage of the maximum velocity in the wells where no Bay11-7085 was present. For qualitative assessment of Bay11-7085 mediated inhibition of PcpS relative to 6-NOBP, duplicate wells were established with either 20 μM of each inhibitor or with DMSO added instead of an inhibitor (positive control). For a negative control, ddH2O was added instead of PcpS. Reactions were initiated by addition of 20 μL of PcpS at a final reaction concentration of 0.18 μM (or H2O for the negative control) using an automatic dispensing Pipette. The plate was then shaken for 10 seconds at 1000 rpm to mix the compounds, and incubated on the benchtop until the positive control wells had gone dark blue.

[4] = Effect of pH on indigoidine stability (loss of colouration, A590); format: physicochemical; conditions: culture supernatant, 50 mM sodium phosphate buffer, 20 min
Procedure: (A) Diluted sterile supernatant from an indigoidine producing culture was incubated for 20 min with 50 mM sodium phosphate buffer at each of the indicated pH values in triplicate. Loss of colouration was then assessed by measuring A590. Error bars are presented as +/− one standard deviation. (B) Indigoidine reactions differing only in the pH of the buffer used are shown.
The supernatant from BpsA-expressing cultures reached a much higher A590 (˜1.2) than the maximum achieved from any in vitro experiments (˜0.3) (not shown). Without wishing to be bound by theory, the inventors hypothesized that that since indigoidine produced and exported from a cell in vivo was effectively removed from exposure to intracellular enzymes, the loss of in vitro product may have been due to enzymatic degradation in the in vitro assay preparations. This could be due to BpsA itself, the activating PPTase or an undetected contaminating species. To test this possibility, filter sterilized culture supernatant containing indigoidine was incubated with various concentrations of each enzyme preparation used for in vitro assays. No difference in pigment levels resulted from this treatment. It was concluded that the loss of pigmentation seen in vitro was not enzyme catalysed. […] A more detailed analysis of the relationship between pH and pigment stability was then conducted. […]

E. coli = format: cell-based; conditions: high levels of active BpsA, excess L-Gln, extended time
From the text: In one embodiment, activation of the NRPS BpsA then produces the dye, indigoidine. […] Due to this toxicity, E. coli cells expressing high levels of active BpsA in the presence of excess L-Gln for an extended period of time are not viable. Toxicity may be avoided by plating an E. coli reporter strain comprising a CNA expression construct on a selection medium lacking an inducer of BpsA expression. In one embodiment the inducer is IPTG.
We constructed plasmids that allowed IPTG regulated co-expression of a candidate PPTase and BpsA in E. coli BL21(DE3). To enable IPTG regulated co-expression the BpsA gene of S. lavendulae ATCC 11924 was cloned into pCDFDUET-1 (Novagen) and three candidate PPTases into the (origin of replication compatible) vector pET28a(+). […] In contrast, if IPTG was absent from the medium viable co-transformed cells were recovered with good efficiency (not shown). […] In order to circumvent this problem we employed auto-induction agar plates, prepared by addition of 1.5% agar to Studier ZYP-5052 auto-induction medium (Studier 2005). Use of auto-induction agar plates allowed for both rapid growth and efficient induction of pigment production following extended incubation at room temperature.
Initial trials were run using E. coli harbouring a P. putida PPTase expression plasmid. […]

[5] = Kuhn et al, 1965; cited from earlier work

Chain of Sfp (G4NQW2 entry or part of it): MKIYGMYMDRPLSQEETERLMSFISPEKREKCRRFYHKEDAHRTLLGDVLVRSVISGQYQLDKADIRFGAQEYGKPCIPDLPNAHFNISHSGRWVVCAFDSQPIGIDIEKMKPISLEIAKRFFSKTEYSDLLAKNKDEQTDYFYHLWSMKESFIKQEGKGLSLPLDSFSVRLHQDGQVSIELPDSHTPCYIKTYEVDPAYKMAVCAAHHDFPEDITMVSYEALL
Chain of PP1183 (Q88NM4 entry or part of it): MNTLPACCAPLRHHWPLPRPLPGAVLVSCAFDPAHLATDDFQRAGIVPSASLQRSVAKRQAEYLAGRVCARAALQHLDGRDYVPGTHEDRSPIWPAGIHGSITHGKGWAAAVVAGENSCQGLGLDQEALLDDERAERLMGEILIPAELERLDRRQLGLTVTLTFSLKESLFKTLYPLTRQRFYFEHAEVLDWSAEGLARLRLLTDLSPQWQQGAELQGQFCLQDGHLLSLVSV
Chain of PcpS (Pseudomonas aeruginosa, UniProt Q9I4H2) (Q9I4H2 entry or part of it): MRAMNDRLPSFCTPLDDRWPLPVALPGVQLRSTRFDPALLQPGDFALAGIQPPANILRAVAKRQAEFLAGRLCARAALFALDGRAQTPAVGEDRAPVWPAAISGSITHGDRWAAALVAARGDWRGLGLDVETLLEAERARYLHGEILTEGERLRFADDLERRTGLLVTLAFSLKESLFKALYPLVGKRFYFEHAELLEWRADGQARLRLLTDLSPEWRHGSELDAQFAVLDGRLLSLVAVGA

Work on `O=Nc1ccc2oc(=O)ccc2c1` [6-NOBP] yielded a pIC50 (PcpS [1]; 1.25 μM CoA) of 5.39, a pKi (PcpS [1]; 1.25 μM CoA) of 5.51 and a pIC50 (PcpS [1]; 5 μM CoA) of 4.97. It also gave a pKi (PcpS [1]; 5 μM CoA) of 5.33, a pIC50 (Sfp; 1.25 μM CoA) of 5.68 and a pIC50 (Sfp; 5 μM CoA) of 5.04. The pKi (Sfp; 1.25 μM CoA) was 6.15, the pKi (Sfp; 5 μM CoA) was 6.00 and the pIC50 (PP1183; 1.25 μM CoA) was 5.43. It also gave a pIC50 (PP1183; 5 μM CoA) of 5.01, a pKi (PP1183; 1.25 μM CoA) of 5.48 and a pKi (PP1183; 5 μM CoA) of 5.17. The pIC50 (holo-BpsA) was 4.53, the “Outcome in high throughput screen for PcpS inhibitors” value (PcpS [2]) was “weak PcpS inhibitor” and the pIC50 (all three PPTases; read-out: IC50 values, range over the three PPTases, CoA concentration set at 5 μM) was 4.97 to 5.04. The pKi (all three PPTases; read-out: K, values, range over the three PPTases, converted from IC50 with Km of each PPTase) was 5.12 to 6.30.

For `CC(C)(C)c1ccc(S(=O)(=O)/C=C/C#N)cc1` [Bay11-7085], the “Qualitative inhibition of PcpS relative to 6-NOBP” value (PcpS [3]) was “clearly a stronger inhibitor of PcpS than 6-NOBP”.

For indigoidine, the “Pigment stability versus pH” value [4] is listed as “decolouration occurred to a greater extent at higher pH”, the “Toxicity to E. coli” value (E. coli) is listed as “toxic to E. coli over time” and the “Pigment stability versus pH (previous observations)” value [5] is listed as “unstable at alkaline pH”.
